In patent US12053459B2, “CDK2 inhibitors and methods of using the same” (Cedilla Therapeutics, Inc., priority 2021, dated 2024):

Experiments:
CDK2/Cyclin E1(14-475) = CDK2/Cyclin E1(14-475) (Homo sapiens, UniProt P24941); test: Caliper LabChip EZ Reader mobility shift assay, inhibition of CDK2/Cyclin E1 activity; format: biochemical; conditions: class symbols A-D
Experimental: Inhibition of CDK2/Cyclin E1 activity in the presence of compounds of the present disclosure was evaluated using a Caliper LabChip® EZ Reader mobility shift assay. In the assay, activated CDK2/Cyclin E1 catalyzes the phosphorylation of a fluorescently tagged peptide 5-FAM-QSPKKG-CONH2 (PerkinElmer, FL Peptide 18) which induces a difference in capillary electrophoresis mobility. The peptide substrate and product were measured, and the conversion ratio was used to determine the inhibition (as % activity and IC50 values) of CDK2/Cyclin E1. Reactions contained 50 mM HEPES pH 7.5, 10 mM MgCl2, 1 mM EDTA, 2 mM DTT, 0.01% Brij35, 0.5 mg/mL BSA, 0.1% DMSO, 2.5 nM CDK2/Cyclin E1(14-475), 100 μM ATP, and 1.5 μM fluorescent peptide substrate.
Dose titrations of inhibitors in 100% DMSO were combined with 3.25 nM CDK2/Cyclin E1(14-475) and 130 μM of ATP in reaction buffer. The mixtures were incubated for 30 minutes before the addition of fluorescent peptide substrate to initiate the kinase reaction. The final conditions were 2.5 nM CDK2/Cyclin E1(14-475), 100 μM ATP, and 1.5 μM fluorescent peptide. The reactions were stopped after 100 minutes with the addition of EDTA (6 mM final EDTA concentration). The stopped reactions were analyzed on a Caliper LabChip® EZ Reader II. The conversion ratios were normalized to yield % activity, plotted against compound concentration, and fit to a four-parameter equation to determine the IC50 for each compound.

Kuramochi cells = test: BrdU cell proliferation assay (colorimetric ELISA), Kuramochi cells; format: cell-based; conditions: class symbols A-D
Experimental: A BrdU assay was used as a measure of proliferation based on the DNA replication process of proliferating cells. BrdU, a pyrimidine analog, is added to the cell culture and incorporated into the DNA of proliferating cells. The presence of the BrdU analog was then measured through a colorimetric ELISA. After fixation and permeabilization of cells, peroxidase-conjugated antibody recognizing BrdU is added and allowed to incubate, followed by thorough washing to remove unbound antibody. In order to quantify the amount of bound antibody, peroxidase substrate is added and produces a color that can be measured at 450 nm.
On day −1, Kuramochi cells (Sekisui XenoTech JCRB0098) were seeded at 2,000 cells/well in columns 2-12 of a 96 well plate (Corning, CLS3596) in 150 uL media and allowed to adhere overnight at 37 degree with 5% CO2. In order to assess specificity of the compounds, Kuramochi RB^KO cells were also plated and treated, as RB^KO cells were not expected to show a proliferative response to CCNE/CDK specific inhibitors.
On day 0, the source plate was prepared by adding 10 mM compounds and performing 3-fold serial dilutions for a 4-point dose response of each compound. Using a multichannel pipette, 2 uL of the contents of the source plate were stamped into an intermediate plate with 500 uL of RPMI 1640 Media, GlutaMAX Supplement (Life Technologies, 61870127) in each well of a Nunc 96 DeepWell™ plate, non-treated 96 DeepWell plate, 2 mL/well, sterile, natural, 60/cs (Sigma Z717274) and mixed thoroughly. 50 uL from row A of this intermediate plate were added to rows A-H of one plate of previously seeded Kuramochi cells, and each subsequent row of the intermediate plate was added to a full plate of cells.
On day 4, the plates were developed using the BrdU ELISA Cell Proliferation Assay according to manufacturer's instructions (Roche, 11647229001). Briefly, BrdU was diluted 1:100 in Gibco®, Opti-MEM® and 20 μL/well was added, shaken for 10 minutes at 350 rpm, and then returned to the incubator for 1 hour. Following incubation, the medium was discarded, and the cells were fixed by adding 200 μL of Fix/Denature solution. The anti-BrdU peroxidase antibody was diluted 1:1000 in OptiMEM, added at 100 μL/well, and incubated while shaking (350 rpm) for one hour. Three washes with PBS were performed to remove any unbound antibody, followed by the addition of 100 μL of substrate solution to each well. […] was then added to halt the reaction, and plates were read out using an Envision spectrophotometer (Perkin Elmer) set to read 450 nm absorbance. Background absorbance values from empty wells were subtracted from all samples and then normalized to DMSO treated wells.

| IC50 (CDK2/Cyclin E1(14-475)) | SMILES | IC50 (Kuramochi cells) |
| --- | --- | --- |
| > 10 µM | CNC(=O)[C@H](CCCc1ccccc1)NC(=O)C1CN(C(=O)Cc2c[nH]c3cc(Cl)ccc23)CC2CN(C(=O)c3ccc4c(c3)CC(=O)N4)CC21 (single isomer, unassigned) [I-23] | > 10 µM |
| > 10 µM | CNC(=O)[C@H](CCCc1ccccc1)NC(=O)C1CN(C(=O)Cc2c[nH]c3cc(Cl)ccc23)CC2CN(C(=O)c3ccc4c(c3)n(C)c(=O)n4C(C)C)CC21 (single isomer, unassigned) [I-86] | > 10 µM |
| ≤ 0.5 µM | CNC(=O)[C@H](CCCc1ccccc1)NC(=O)C1CN(C(=O)Cc2c[nH]c3cc(Cl)ccc23)CC2CN(C(=O)c3ccc4c(c3)n(C)c(=O)n4C(C)C)CC21 (single isomer, unassigned) [I-87] | > 10 µM |
| ≤ 0.5 µM | COc1cc(C(=O)N2CC3CN(C(=O)Cc4c[nH]c5cc(Cl)ccc45)CC(C(=O)NCC(=O)N(C)CCCc4ccccc4)C3C2)ccc1OC(C)C (single isomer, unassigned) [I-100] | 0.5 to 5 µM |
| > 10 µM | COc1cc(C(=O)N2CC3CN(C(=O)Cc4c[nH]c5cc(Cl)ccc45)CC(C(=O)NCC(=O)N(C)CCCc4ccccc4)C3C2)ccc1OC(C)C (single isomer, unassigned) [I-101] | > 10 µM |
| > 10 µM | CNC(=O)[C@H](Cc1c[nH]c2ccccc12)NC(=O)C1CN(C(=O)Cc2c[nH]c3cc(Cl)ccc23)CC2CN(C(=O)c3ccc(OC(C)C)c(OC)c3)CC21 (single isomer, unassigned) [I-110] | > 10 µM |
| ≤ 0.5 µM | CNC(=O)[C@H](Cc1c[nH]c2ccccc12)NC(=O)C1CN(C(=O)Cc2c[nH]c3cc(Cl)ccc23)CC2CN(C(=O)c3ccc(OC(C)C)c(OC)c3)CC21 (single isomer, unassigned) [I-111] | > 10 µM |
| 0.5 to 5 µM | COc1cc(C(=O)N2CC3CN(C(=O)Cc4c[nH]c5cc(Cl)ccc45)CC(C(=O)N[C@H]4CCCN(Cc5ccccc5)C4)C3C2)ccc1OC(C)C (single isomer, unassigned) [I-117] | > 10 µM |
| > 10 µM | COc1cc(C(=O)N2CC3CN(C(=O)Cc4c[nH]c5cc(Cl)ccc45)CC(C(=O)N[C@H]4CCCN(Cc5ccccc5)C4)C3C2)ccc1OC(C)C (single isomer, unassigned) [I-118] | > 10 µM |
| > 10 µM | CNC(=O)[C@H](CCCc1cccc(O)c1)NC(=O)C1CN(C(=O)Cc2c[nH]c3cc(Cl)ccc23)CC2CN(C(=O)c3ccc(OC(C)C)c(OC)c3)CC21 (single isomer, unassigned) [I-152] | > 10 µM |
| 0.5 to 5 µM | CNC(=O)[C@H](CCCc1cccc(O)c1)NC(=O)C1CN(C(=O)Cc2c[nH]c3cc(Cl)ccc23)CC2CN(C(=O)c3ccc(OC(C)C)c(OC)c3)CC21 (single isomer, unassigned) [I-153] | > 10 µM |
| > 10 µM | CNC(=O)[C@H](CCCc1ccccc1)NC(=O)C1CN(C(=O)c2cn3ccncc3n2)CC2CN(C(=O)c3ccc(OC(C)C)c(OC)c3)CC21 (single isomer, unassigned) [I-195] | > 10 µM |
| > 10 µM | CNC(=O)[C@H](CCCc1ccccc1)NC(=O)C1CN(C(=O)c2coc(Cl)n2)CC2CN(C(=O)c3ccc(OC(C)C)c(OC)c3)CC21 (single isomer, unassigned) [I-232] | > 10 µM |
| > 10 µM | CNC(=O)[C@H](CCCc1ccccc1)NC(=O)C1CN(C(=O)c2coc(Cl)n2)CC2CN(C(=O)c3ccc(OC(C)C)c(OC)c3)CC21 (single isomer, unassigned) [I-233] | > 10 µM |
| 0.5 to 5 µM | COc1cc(C(=O)N2CC3CN(C(=O)Cc4c[nH]c5cc(Cl)ccc45)CC(C(=O)N[C@@H](CCCc4cccc(O)c4)C(=O)NCCCCCN)C3C2)ccc1OC(C)C (single isomer, unassigned) [I-257] | > 10 µM |
| 5 to 10 µM | CNC(=O)[C@H](CCCc1ccccc1)NC(=O)C1CN(C(=O)Cc2c[nH]c3cc(Cl)ccc23)CC2CN(C(=O)c3ccc(OC)c(OC)c3)CC21 (stereo partly drawn) [I-33] |  |
| > 10 µM | CNC(=O)[C@H](CCCc1ccccc1)NC(=O)C1CN(C(=O)Cc2c[nH]c3cc(Cl)ccc23)CC2CN(C(=O)c3ccc4ncccc4c3)CC21 (stereo partly drawn) [I-36] |  |
| > 10 µM | CNC(=O)[C@H](CCCc1ccccc1)NC(=O)C1CN(C(=O)Cc2cccnc2)CC2CN(C(=O)c3ccc(OC(C)C)c(OC)c3)CC21 (stereo partly drawn) [I-224] |  |
| > 10 µM | CNC(=O)[C@H](CCCc1ccccc1)NC(=O)C1CN(CCc2c[nH]c3cc(Cl)ccc23)CC2CN(C(=O)c3ccc(OC(C)C)c(OC)c3)CC21 (stereo partly drawn) [I-254, 5-(2-(6-chloro-1H-indol-3-yl)ethyl)-2-(4-isopropoxy-3-methoxybenzoyl)-N—((S)-1-(methylamino)-1-oxo-5-phenylpentan-2-yl)octahydro-1H-pyrrolo[3,4-c]pyridine-7-carboxamide] |  |

Further lines, the compound ahead of its results:

| SMILES | IC50 (CDK2/Cyclin E1(14-475)) | IC50 (Kuramochi cells) |
| --- | --- | --- |
| CNC(=O)[C@H](CCCc1ccccc1)NC(=O)C1CN(C(=O)Cc2c[nH]c3cc(Cl)ccc23)CC2CN(C(=O)c3ccc4c(c3)CC(=O)N4)CC21 (single isomer, unassigned) [I-22] | > 10 µM | > 10 µM |
| CNC(=O)[C@H](CCCc1ccccc1)NC(=O)C1CN(C(=O)c2cn3ccncc3n2)CC2CN(C(=O)c3ccc(OC(C)C)c(OC)c3)CC21 (single isomer, unassigned) [I-194] |  | > 10 µM |
| CNC(=O)[C@H](CCCc1ccccc1)NC(=O)C1CN(C(=O)Cc2c[nH]c3cc(Cl)ccc23)CC2CN(C(=O)c3ccc(O)cc3)CC21 (stereo partly drawn) [I-4] | > 10 µM |  |
| CNC(=O)[C@H](CCCc1ccccc1)NC(=O)C1CN(C(=O)Cc2c[nH]c3cc(Cl)ccc23)CC2CN(C(=O)c3cccc(OC)c3)CC21 (stereo partly drawn) [I-49] |  | > 10 µM |
| CNC(=O)[C@H](CCCc1ccccc1)NC(=O)C1CN(C(=O)Cc2c[nH]c3cc(Cl)ccc23)CC2CN(C(=O)C3CCCCC3)CC21 (stereo partly drawn) [I-51] |  | > 10 µM |
| CNC(=O)[C@H](CCCc1ccccc1)NC(=O)C1CN(C(=O)Cc2c[nH]c3cc(Cl)ccc23)CC2CN(C(=O)c3ccc4c(c3)CCO4)CC21 (stereo partly drawn) [I-53] |  | > 10 µM |
| CNC(=O)[C@H](CCCc1ccccc1)NC(=O)C1CN(C(=O)Cc2c[nH]c3cc(Cl)ccc23)CC2CN(C(=O)c3cccc(-c4cccnc4)c3)CC21 (stereo partly drawn) [I-63] |  | > 10 µM |
| CNC(=O)[C@H](CCCc1ccccc1)NC(=O)C1CN(C(=O)Cc2c[nH]c3cc(Cl)ccc23)CC2CN(C(=O)c3ncc(-c4ccccc4)s3)CC21 (stereo partly drawn) [I-68] |  | > 10 µM |
| CNC(=O)[C@H](CCCc1ccccc1)NC(=O)C1CN(C(=O)Cc2c[nH]c3cc(Cl)ccc23)CC2CN(C(=O)c3ccc4oc(=O)n(C)c4c3)CC21 (stereo partly drawn) [I-76] |  | > 10 µM |
| CNC(=O)[C@H](CCCC(C)(C)C)NC(=O)C1CN(C(=O)Cc2c[nH]c3cc(Cl)ccc23)CC2CN(C(=O)c3ccc(OC(C)C)c(OC)c3)CC21 (stereo partly drawn) [I-96] |  | > 10 µM |
| COc1cc(C(=O)N2CC3CN(C(=O)Cc4c[nH]c5cc(Cl)ccc45)CC(C(=O)NCCCCc4ccccc4)C3C2)ccc1OC(C)C (stereo not drawn) [I-119] |  | > 10 µM |
| CNC(=O)[C@@H](Cc1ccccc1)NC(=O)C1CN(C(=O)Cc2c[nH]c3cc(Cl)ccc23)CC2CN(C(=O)c3ccc(OC(C)C)c(OC)c3)CC21 (stereo partly drawn) [I-120] |  | > 10 µM |
| CNC(=O)[C@@H](Cc1ccc(O)cc1)NC(=O)C1CN(C(=O)Cc2c[nH]c3cc(Cl)ccc23)CC2CN(C(=O)c3ccc(OC(C)C)c(OC)c3)CC21 (stereo partly drawn) [I-121] |  | > 10 µM |
